The text below walks through data of US4983636A, “Composition and method of treating selected malignant conditions” (Rikagaku Kenkyusho Wako, priority 1976, dated 1991).

One series deals with E. coli W3110. In words: uptake of 14C-substrate (thymine, adenine, glutamic acid, alanine) by E. coli W3110. The note with it: for adenine incorporation / alanine incorporation / glutamic acid incorporation / thymine incorporation: E. coli W3110. Here is the method: (§1) In the Table, "glucose" was added as an energy source for cells in which propagation had been terminated and "CM" (Chloramphenicol) was added so as to terminate propagation of cells. […] Separately, instead of this composition of the foregoing additives, a composition comprising glucose, CM, 14C-substrate and colistin was added and cells were similarly obtained. The colistin was added for a comparison system to the Ba-added system because colistin is a permeation inhibitor for cell membranes (antibiotic substance).
(§2) In Table 2, the value of each numerator means a value measured by a scintillation counter and the value of each denominator means a ratio (%) to the value of the control (100%).

For a further series, the system named is E. coli S. In words: uptake of 14C-substrate (tryptophane) by E. coli S. The note with it: for tryptophane incorporation: E. coli S. Here is the method: as §1, §2
The subject of series [1] is Escherichia coli. In words: influence on uptake of amino acids and nucleic acid bases by Escherichia coli (incl. time course, FIGS. 1 and 2). Particulars: in words. How it is done:
as §1

Series [2] has as its system Escherichia coli. In words: outflow of incorporated substrates from Escherichia coli cells (FIG. 3). Particulars: FIG. 3, in words.
Series [3] concerns Adeno-carcinoma 755. In words: Test 1: tumor weight, subcutaneously implanted Adeno-carcinoma 755. The format is in vivo, mice (first filial generation of C57BL/6 and DBA/2). Particulars: 11th day. How it is done: (§3) As the experimental animal, there were used four mice of the first filial generation of C57BL/6 and DBA/2, which were 6 to 7 weeks old. A carcinoma (Adeno-carcinoma 755) was implanted on the hypoderm in the back by using an implanting needle. […] This treatment was conduced once a day for 9 days. On the 11th day from the implantation, the weight of the tumor was measured with respect to each group to obtain the results shown in Table 3.

Series [4] relates to Adeno-carcinoma 755. In words: Test 2: tumor weight, Adeno-carcinoma 755, intraperitoneal benzaldehyde. The format is in vivo, mice (first filial generation of C57BL/6 and DBA/2). Particulars: 11th day. Here is the method:
as §3
The treatment was continued for 9 days. On the 11th day from the implantation, the tumor weight was measured with respect to each group to obtain results shown in Table 4.

For series [5], the system named is Ehrlich carcinoma. In words: Test 3: tumor weight, subcutaneously implanted Ehrlich carcinoma (solid tumor). The format is in vivo, mice of RFVL. How it is done: Ten mice of RFVL which were 4 to 5 weeks old were used as the experiemental animals, and about 10^6 cells/0.2 ml of Ehrlich carcinoma were implanted subcutaneously at the right armpit. […] This treatment was continued for 9 days. On the 11th day from the tumor implantation, the tumor weight was measured with respect to each group to obtain results shown in Table 5. In each of control and treated groups, the increase of the body weight in the tested mice during the test was 3.5 g as the average value determined on 10 mice.

Series [6] concerns Ehrlich carcinoma. In words: Test 4: survival effect, intraperitoneally implanted Ehrlich carcinoma (FIG. 4). Type of series: in vivo, mice of RFVL. Particulars: 10 days. How it is done:
Ten mice of RFVL which were 4 to 5 weeks old were used as the test animals and about 10^6 cells/0.2 ml of Ehrlich carcinoma were implanted intraperitoneally.
In FIG. 4, the suspension was administered at doses of 25, 50 and 100 mg/Kg/day to treated groups and the 0.85% biological sodium chloride solution alone was administered to a control group. Parenthesized values shown for each group are average values of the number of living days and the survival ratio.

A short description of series [7]: continuous administration for 10 days, toxicity. The format is in vivo. From the text:
(§4) In general, Ehrlich ascites tumor is highly sensitive to conventional carcinostatic agents of cytotoxic type, and Ehrlich solid tumor is relatively lowly sensitive to most of these known carcinostatic agents. […] Thus, the composition of the present invention is very unique in the point that it is efficacious against a broadrange of carcinomatous diseases.

In series [8] the test system is malignant cells of adenomatous carcinoma, squamous cell carninoma, sarcoma and the like, especially undifferentiated tumors. In words: clinical experiments, sensitivity of malignant cells. The note with it: in words. The format is in vivo, human.
Text: as §4

The nature of series [9]: excretion from the living body. Type of series: in vivo. Particulars: in words.
In a further series the test system is lymphosarcoma. In words: effect against lymphosarcoma. Particulars: in words.
In another series the test system is tumor cells of mice. In words: control of tumor cells of mice. The note with it: in words.

“And” between values parts separate entries of the source, which are not always exact repeats. Equal values may be shown once. “Also recorded” adds a separate entry of the source. Where only a bound is given, the exact number is not on record here.

In the case of `O=Cc1ccccc1` [benzaldehyde], the adenine incorporation was 3135 CPM in the series on E. coli W3110 (adenine, benzaldehyde 10^-1 PPM); 3684 CPM in the series on E. coli W3110 (adenine, benzaldehyde 10^-2 PPM); 4246 CPM in the series on E. coli W3110 (adenine, benzaldehyde 10^-3 PPM). Moreover, the alanine incorporation with E. coli W3110 (alanine, benzaldehyde 10^-1 PPM) was 5283 CPM; in the series on E. coli W3110 (alanine, benzaldehyde 10^-2 PPM), 5438 CPM; in the series on E. coli W3110 (alanine, benzaldehyde 10^-3 PPM), 5838 CPM. The glutamic acid incorporation in the series on E. coli W3110 (glutamic acid, benzaldehyde 10^-1 PPM) turned out to be 2842 CPM; with E. coli W3110 (glutamic acid, benzaldehyde 10^-2 PPM), 2779 CPM; in the series on E. coli W3110 (glutamic acid, benzaldehyde 10^-3 PPM), 3203 CPM. Moreover, the thymine incorporation with E. coli W3110 (thymine, benzaldehyde 10^-1 PPM) turned out to be 1399 CPM; in the series with E. coli W3110 (thymine, benzaldehyde 10^-2 PPM), 1566 CPM; in the series with E. coli W3110 (thymine, benzaldehyde 10^-3 PPM), 1891 CPM. The tryptophane incorporation in the series on E. coli S (benzaldehyde 10^-1 PPM) stood at 1076 CPM; in the series on E. coli S (benzaldehyde 10^-2 PPM) it was 915 CPM; with E. coli S (benzaldehyde 10^-3 PPM), 808 CPM. Besides, the “influence on uptake of nucleic acids and other amino acids” value in the series on Escherichia coli [1] (substrates other than tryptophane) is “incorporation of nucleic acids and other amino acids is inhibited; also recorded: exerts an uptake inhibiting action in the case of other substrates”. Further, the “influence on uptake of tryptophane” value with Escherichia coli [1] (tryptophane) is given as “the incorporation is promoted; also recorded: the uptake of tryptophane increases with the lapse of time; also recorded: specifically promotes the uptake of tryptophane among substrates”. For the same molecule, the “damage to cell membranes” value in the series on Escherichia coli [2] is “causes no damage to cell membranes”. For the same molecule, the “outflow of incorporated substrate” value in the series on Escherichia coli [2] was “outflow of the substrate is remarkably reduced and is not changed from outflow of the substrate in the control system”. In addition, the “Average Weight (tumor)” value was 3.8 g in the series on Adeno-carcinoma 755 [3] (10 ppm suspension s.c. for 9 days, control 5.8 g); 3.55 g in the series on Adeno-carcinoma 755 [4] (3.5% suspension 0.1 ml i.p. for 9 days, control 5.90 g); 1.24 g with Ehrlich carcinoma [5] (10 mg/Kg i.p. for 9 days, 11th day, control 2.79 g). For the same molecule, the “Tumor Weight” value in the series with Adeno-carcinoma 755 [3] (individual animal, 10 ppm suspension 0.5 to 1.0 ml s.c. once a day for 9 days) was 4.6 g and 2.6 g and 4.1 g; in the series with Adeno-carcinoma 755 [4] (individual animal, 3.5% suspension 0.1 ml i.p. once a day for 9 days), 3.3 g and 3.4 g and 4.0 g and 3.5 g; in the series on Ehrlich carcinoma [5] (individual animal, 10 mg/Kg i.p. once a day for 9 days, 11th day, 10 mg/kg), 3.8 g and 2.4 g and 2.2 g and 0.8 g and 0.6 g and 0.5 g and 0.4 g and 0.3 g. Moreover, in the series with Ehrlich carcinoma [5] (10 mg/Kg i.p. for 9 days, 10 mice, same in control group), the “increase of the body weight during the test (average)” value is reported as 3.5 g. Moreover, in the series with Ehrlich carcinoma [5] (solid versus ascites tumor, in words), the “effect on Ehrlich solid tumor” value is on record as “acts strongly on the solid tumor rather than the ascites tumor; also recorded: prominent effect on Erlich solid tumor”. Besides, the values for the survival effect in the series on Ehrlich carcinoma [6] (50 mg/Kg per day i.p.) and in the series with Ehrlich carcinoma [6] (100 mg/Kg per day i.p.) were 15.4% and 26.9%, respectively. In addition, in series [7] (administered continuously for 10 days), the “daily dose without bad influences such as toxicity on the host” value is “up to 200 mg/Kg”. Besides, in [7] (in vivo, ip, continuous intraperitoneal injection for 10 days, read-out: daily dose at which no toxicity is observed), the NOAEL at 240 h was no less than 200 mg/kg/day. In series [7] (in words), the side effects result is listed as “causes no side effects”. For the same molecule, the “sensitivity of malignant cells” value in [8] was “highly sensitive to benzaldehyde”. Moreover, in series [9], the “excretion from the living body” value is “promptly excreted from the living body; also recorded: promptly extracted from living bodies”. The effect against lymphosarcoma result with lymphosarcoma is given as “effective against lymphosarcoma”. Besides, in the series on tumor cells of mice, the “control of tumor cells of mice” value was “effective for controlling tumor cells of mice”.
For the molecule colistin [reference compound], the adenine incorporation in the series on E. coli W3110 (adenine, colistin 5 PPM) was 1066 CPM. Moreover, in the series on E. coli W3110 (adenine, colistin 5 PPM, control 100%), the “adenine incorporation, ratio (%) to the control” value amounted to 23%. Moreover, the alanine incorporation with E. coli W3110 (alanine, colistin 5 PPM) came out at 1009 CPM. In addition, the “alanine incorporation, ratio (%) to the control” value in the series with E. coli W3110 (alanine, colistin 5 PPM, control 100%) was determined as 17%. Also, in the series on E. coli W3110 (glutamic acid, colistin 5 PPM), the glutamic acid incorporation is recorded as 670 CPM. Moreover, in the series on E. coli W3110 (glutamic acid, colistin 5 PPM, control 100%), the “glutamic acid incorporation, ratio (%) to the control” value came out at 16%. In the series with E. coli W3110 (thymine, colistin 5 PPM), this molecule displayed a thymine incorporation of 333 CPM. In addition, the “thymine incorporation, ratio (%) to the control” value in the series on E. coli W3110 (thymine, colistin 5 PPM, control 100%) turned out to be 16%. The molecule also gave a tryptophane incorporation in the series on E. coli S (colistin 5 PPM) of 439 CPM. In addition, the “tryptophane incorporation, ratio (%) to the control” value with E. coli S (colistin 5 PPM, control 100%) was found to be 65%. Also, in the series on Escherichia coli [2], the “damage to cell membranes” value is “cell membranes are destroyed” and the “outflow of incorporated substrate” value was “outflow of the substrate is extreme”.
